Values joined by “and” are separate entries in the source; they are usually repeats but may differ in a detail not shown here. Equal values may be shown once. Inconclusive results and toxic doses are left out.
Tested on: B6C3F1 mice, Lewis lung carcinoma iv, survival T/C
Assay: NCI In Vivo Anticancer Drug Screen. Data for tumor model Lewis Lung Carcinoma (intravenous) in B6C3F1 mice
Conditions: endpoint: median survival time, higher = longer survival
In short: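 T/C ratio derived from survival of compound-treated versus vehicle-treated mice bearing transplantable tumors.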

[1] = dose: 12.5 mg/kg/injection, schedule: Q01DX009 (ip), vehicle: saline
[2] = dose: 25.0 mg/kg/injection, schedule: Q01DX009 (ip), vehicle: saline
[3] = dose: 50.0 mg/kg/injection, schedule: Q01DX009 (ip), vehicle: saline
[4] = dose: 100.0 mg/kg/injection, schedule: Q01DX009 (ip), vehicle: saline
[5] = dose: 200.0 mg/kg/injection, schedule: Q01DX009 (ip), vehicle: saline
[6] = dose: 6.25 mg/kg/injection, schedule: Q01DX009 (ip), vehicle: saline with Tween-80
[7] = dose: 12.5 mg/kg/injection, schedule: Q01DX009 (ip), vehicle: saline with Tween-80
[8] = dose: 25.0 mg/kg/injection, schedule: Q01DX009 (ip), vehicle: saline with Tween-80
[9] = dose: 50.0 mg/kg/injection, schedule: Q01DX009 (ip), vehicle: saline with Tween-80
[10] = dose: 100.0 mg/kg/injection, schedule: Q01DX009 (ip), vehicle: saline with Tween-80
[11] = dose: 200.0 mg/kg/injection, schedule: Q01DX009 (ip), vehicle: saline with Tween-80
[12] = dose: 25.0 mg/kg/injection, schedule: Q01DX009 (ip), vehicle: Klucel (hydroxypropylcellulose) (HPC)
[13] = dose: 50.0 mg/kg/injection, schedule: Q01DX009 (ip), vehicle: Klucel (hydroxypropylcellulose) (HPC)
[14] = dose: 100.0 mg/kg/injection, schedule: Q01DX009 (ip), vehicle: Klucel (hydroxypropylcellulose) (HPC)
[15] = dose: 400.0 mg/kg/injection, schedule: Q01DX009 (ip), vehicle: saline
[16] = dose: 400.0 mg/kg/injection, schedule: Q01DX009 (ip), vehicle: saline with Tween-80
[17] = dose: 3.12 mg/kg/injection, schedule: Q01DX009 (ip), vehicle: saline with Tween-80

SMILES: COC(=O)c1ccoc1
- T/C [1]: 100 % of control
- T/C [2]: 111 % of control
- T/C [3]: 97 % of control
- T/C [4]: 108 % of control
- T/C [5]: 117 % of control

SMILES: CC1c2ccccc2CC(CCN(C)C)c2ccccc21 (configuration not stated)
- T/C [6]: 100 % of control
- T/C [7]: 101 % of control
- T/C [8]: 107 % of control
- T/C [9]: 96 % of control

SMILES: c1nc(N2CC2)c2cnn(C3CCCCO3)c2n1 (configuration not stated)
- T/C [9]: 103 % of control
- T/C [10]: 107 % of control
- T/C [11]: 112 % of control

SMILES: CCOC(OCC)C(=O)OCC(=O)[C@]1(O)Cc2c(O)c3c(c(O)c2[C@@H](OC2CC(N)C(O)C(C)O2)C1)C(=O)c1c(OC)cccc1C3=O (some centres not stated)
- T/C (dose: 0.13 mg/kg/injection, schedule: Q01DX009 (ip), vehicle: water): 113 % of control
- T/C (dose: 0.5 mg/kg/injection, schedule: Q01DX009 (ip), vehicle: water): 116 % of control
- T/C (dose: 1.0 mg/kg/injection, schedule: Q01DX009 (ip), vehicle: water): 112 % of control
- T/C (dose: 2.0 mg/kg/injection, schedule: Q01DX009 (ip), vehicle: water): 120 % of control

SMILES: C[C@]12C=CC(=O)C=C1CC[C@@H]1[C@@H]2C(=O)C[C@@]2(C)[C@H]1CC[C@]2(O)C(=O)CO
- T/C (dose: 12.5 mg/kg/injection, schedule: Q01DX009 (ip), vehicle: water): 100 % of control
- T/C (dose: 25.0 mg/kg/injection, schedule: Q01DX009 (ip), vehicle: water): 100 % of control
- T/C (dose: 50.0 mg/kg/injection, schedule: Q01DX009 (ip), vehicle: water): 96 % of control
- T/C (dose: 100.0 mg/kg/injection, schedule: Q01DX009 (ip), vehicle: water): 98 % of control
- T/C (dose: 200.0 mg/kg/injection, schedule: Q01DX009 (ip), vehicle: water): 94 % of control

SMILES: CC(=O)OC1C2(CC3N4C(=O)C5(CO)SSC4(CC31O)C(=O)N5C)OC(C)C(C)(C)C2=O (configuration not stated)
- T/C (dose: 0.08 mg/kg/injection, schedule: Q01DX009 (ip), vehicle: saline): 101 % of control
- T/C (dose: 0.15 mg/kg/injection, schedule: Q01DX009 (ip), vehicle: saline): 88 % of control
- T/C (dose: 0.31 mg/kg/injection, schedule: Q01DX009 (ip), vehicle: saline): 105 % of control
- T/C (dose: 0.62 mg/kg/injection, schedule: Q01DX009 (ip), vehicle: saline): 92 % of control
- T/C (dose: 1.25 mg/kg/injection, schedule: Q01DX009 (ip), vehicle: saline): 86 % of control

SMILES: CC(C)CC(=O)NC(C(=O)NC(C(=O)NC(CC(C)C)C(O)CC(=O)NC(C)C(=O)NC(CC(C)C)C(O)CC(=O)O)C(C)C)C(C)C (configuration not stated)
- T/C (dose: 3.12 mg/kg/injection, schedule: Q01DX009 (ip), vehicle: Klucel (hydroxypropylcellulose) (HPC)): 95 % of control
- T/C (dose: 6.25 mg/kg/injection, schedule: Q01DX009 (ip), vehicle: Klucel (hydroxypropylcellulose) (HPC)): 99 % of control
- T/C (dose: 12.5 mg/kg/injection, schedule: Q01DX009 (ip), vehicle: Klucel (hydroxypropylcellulose) (HPC)): 95 % of control
- T/C [12]: 97 % of control
- T/C [13]: 97 % of control
- T/C [14]: 95 % of control

SMILES: CC(=O)NCCCCCCNC(C)=O
- T/C [2]: 92 % of control and 96 % of control
- T/C [3]: 90 % of control and 92 % of control
- T/C [4]: 88 % of control and 106 % of control
- T/C [5]: 100 % of control and 102 % of control
- T/C [15]: 96 % of control and 103 % of control
- T/C (dose: 800.0 mg/kg/injection, schedule: Q01DX009 (ip), vehicle: saline): 102 % of control and 105 % of control

SMILES: CCCCCC1c2cc(O)ccc2OC1N1CCOCC1 (configuration not stated)
- T/C (dose: 6.0 mg/kg/injection, schedule: Q01DX009 (ip), vehicle: saline with Tween-80): 96 % of control
- T/C (dose: 12.0 mg/kg/injection, schedule: Q01DX009 (ip), vehicle: saline with Tween-80): 104 % of control
- T/C [7]: 97 % of control
- T/C [8]: 91 % of control
- T/C [9]: 103 % of control and 104 % of control
- T/C [10]: 94 % of control and 96 % of control
- T/C [11]: 90 % of control and 99 % of control

SMILES: O=C(c1cccnc1)c1cc(-c2ccccn2)c(=O)n2ccccc12
- T/C [8]: 100 % of control
- T/C [9]: 96 % of control
- T/C [10]: 102 % of control
- T/C [11]: 105 % of control
- T/C [16]: 102 % of control

SMILES: O=[N+]([O-])c1ccc(N2CCOCC2)c2c1no[n+]2[O-]
- T/C [6]: 118 % of control
- T/C [7]: 102 % of control
- T/C [8]: 111 % of control
- T/C [9]: 111 % of control
- T/C [10]: 98 % of control

SMILES: CCCC(=O)OCC1OC(n2cnc3c(=S)nc[nH]c32)C(OC(=O)CCC)C1OC(=O)CCC (configuration not stated)
- T/C [7]: 99 % of control
- T/C [8]: 99 % of control
- T/C [9]: 94 % of control

SMILES: COC1/C=C/O[C@@]2(C)Oc3c(C)c(O)c4c(O)c(cc(O)c4c3C2=O)NC(=O)/C(C)=C\C=C\[C@H](C)C(O)[C@@H](C)[C@@H](O)[C@@H](C)[C@H](OC(C)=O)[C@@H]1C (some centres not stated)
- T/C [7]: 109 % of control
- T/C [8]: 106 % of control
- T/C [9]: 105 % of control
- T/C [10]: 101 % of control
- T/C [11]: 101 % of control
- T/C [16]: 100 % of control

SMILES: CNC(=O)/C=C/C1=CN2C(=O)c3ccc(C)c(O)c3NC(OC)C2C1 (configuration not stated)
- T/C (dose: 0.01 mg/kg/injection, schedule: Q01DX009 (ip), vehicle: saline): 90 % of control and 113 % of control
- T/C (dose: 0.02 mg/kg/injection, schedule: Q01DX009 (ip), vehicle: saline): 93 % of control
- T/C (dose: 0.03 mg/kg/injection, schedule: Q01DX009 (ip), vehicle: saline): 96 % of control
- T/C (dose: 0.05 mg/kg/injection, schedule: Q01DX009 (ip), vehicle: saline): 97 % of control and 107 % of control
- T/C (dose: 0.1 mg/kg/injection, schedule: Q01DX009 (ip), vehicle: saline): 90 % of control and 103 % of control

SMILES: CC(=O)Nc1ccc(Nc2ccc(C(=C3C=CC(=[N+](C)CCC#N)C=C3)c3ccc(N(C)CCC#N)cc3)cc2)cc1
- T/C (dose: 0.39 mg/kg/injection, schedule: Q01DX009 (ip), vehicle: saline with Tween-80): 102 % of control
- T/C (dose: 0.78 mg/kg/injection, schedule: Q01DX009 (ip), vehicle: saline with Tween-80): 102 % of control
- T/C (dose: 1.56 mg/kg/injection, schedule: Q01DX009 (ip), vehicle: saline with Tween-80): 98 % of control
- T/C [17]: 104 % of control
- T/C [6]: 97 % of control
- T/C [7]: 105 % of control

SMILES: CCCC(=O)O.CCCC(=O)O.CCCC(=O)O.CCCC(=O)O.[Rh].[Rh]
- T/C (dose: 0.03 mg/kg/injection, schedule: Q01DX009 (ip), vehicle: saline + alcohol): 95 % of control
- T/C (dose: 0.06 mg/kg/injection, schedule: Q01DX009 (ip), vehicle: saline + alcohol): 97 % of control and 100 % of control
- T/C (dose: 0.12 mg/kg/injection, schedule: Q01DX009 (ip), vehicle: saline + alcohol): 93 % of control and 100 % of control
- T/C (dose: 0.25 mg/kg/injection, schedule: Q01DX009 (ip), vehicle: saline + alcohol): 91 % of control and 102 % of control
- T/C (dose: 0.5 mg/kg/injection, schedule: Q01DX009 (ip), vehicle: saline + alcohol): 92 % of control and 97 % of control
- T/C (dose: 1.0 mg/kg/injection, schedule: Q01DX009 (ip), vehicle: saline + alcohol): 91 % of control and 96 % of control

SMILES: Cn1cnc([N+](=O)[O-])c1SCC(=O)O
- T/C [1]: 100 % of control
- T/C [2]: 107 % of control
- T/C [3]: 103 % of control
- T/C [4]: 93 % of control
- T/C [5]: 104 % of control
- T/C [15]: 96 % of control

SMILES: CC1(C)OCC2OC=CC(=O)C2O1 (configuration not stated)
- T/C [2]: 98 % of control
- T/C [3]: 98 % of control
- T/C [4]: 105 % of control
- T/C [5]: 102 % of control
- T/C [15]: 104 % of control

SMILES: O=S1(=O)C=C(c2ccccc2)C(c2ccccc2)=C1
- T/C [17]: 101 % of control
- T/C [6]: 89 % of control
- T/C [7]: 101 % of control
- T/C [8]: 110 % of control

SMILES: COc1nc(C(Cl)(Cl)Cl)c(Cl)c(OC)c1Cl
- T/C (dose: 25.0 mg/kg/injection, schedule: Q01DX008 (ip), vehicle: Klucel (hydroxypropylcellulose) (HPC)): 120 % of control
- T/C (dose: 50.0 mg/kg/injection, schedule: Q01DX008 (ip), vehicle: Klucel (hydroxypropylcellulose) (HPC)): 113 % of control
- T/C (dose: 100.0 mg/kg/injection, schedule: Q01DX008 (ip), vehicle: Klucel (hydroxypropylcellulose) (HPC)): 113 % of control

SMILES: Clc1ccc(C2SC=Cc3ccccc32)cc1 (configuration not stated)
- T/C [12]: 115 % of control
- T/C [13]: 114 % of control
- T/C [14]: 110 % of control
- T/C (dose: 200.0 mg/kg/injection, schedule: Q01DX009 (ip), vehicle: Klucel (hydroxypropylcellulose) (HPC)): 107 % of control
- T/C (dose: 400.0 mg/kg/injection, schedule: Q01DX009 (ip), vehicle: Klucel (hydroxypropylcellulose) (HPC)): 105 % of control

SMILES: CCCCCCCCCCCCCCCCCC(=O)Nc1ccn(C2OC(CO)C(O)C2O)c(=O)n1 (configuration not stated)
- T/C (dose: 12.5 mg/kg/injection, schedule: Q01DX009 (ip), vehicle: suspension in saline): 103 % of control and 109 % of control
- T/C (dose: 25.0 mg/kg/injection, schedule: Q01DX009 (ip), vehicle: suspension in saline): 119 % of control
- T/C (dose: 50.0 mg/kg/injection, schedule: Q01DX009 (ip), vehicle: suspension in saline): 160 % of control and 164 % of control

From PubChem BioAssay AID276 (DTP/NCI, 2004)
